Data set [1] concerns primary human chondrocytes. The data set is described as follows: BP / BP-AA uptake assay in chondrocyte monolayer (HPLC). The format is cell-based. The method, then: Uptake Assay Methods. Primary human chondrocytes were seeded at a density of 4.5×10^5 cells for 48 hours. The cells were washed with ascorbic acid transport buffer. The free bisphosphonate (BP) and the bisphosphonate conjugated to ascorbic acid (BP-AA) were solubilized in ascorbic acid transport buffer at 10 mM concentration. The cells were incubated with either the free BP or the BP-AA for an hour at 37° C./5% CO2. The cells were washed 4× with ice-cold PBS to remove any extracellular BP or BP-AA. The cells were then lysed in 250 μl ddH2O for 15 minutes on ice, sonicated for 5 minutes, and then scraped from the culture dish. The lysate was then analyzed by ion pair reverse phase HPLC with UV and electrochemical detection (ECD) as described below.
HPLC Methods. Ascorbic acid, free and conjugated, and risedronate analogs were determined by a modification of an ion pair reverse phase high-performance liquid chromatography method initially described by Vallano et al. (Vallano, P. T., Shugarts, S. B., Kline, W. F., Woolf, E. J., and Matuszewski, B. K., Determination of Risedronate in Human Urine by Column-Switching Ion-Pair High-Performance Liquid Chromatography with Ultraviolet Detection. J Chromatogr B Analyt Technol Biomed Life Sci, 2003, 794:23-33). The column consisted of a C18 packing, the mobile phase contained 8% acetonitrile and 92% of 0.005M Q8 (1-octyltriethylammonium phosphate [Regis Technologies, Morton Grove, Ill.]) and 1 mM etidronate (1-hydroxyethylidene-1,1-diphosphonic acid [Strem Chemicals, Newburyport, Mass.]) in a sodium phosphate buffer, pH 6.2, and was pumped at […]. The injection volume was 100 μl and detection was at 262 nm (UV) and 0.7V (ECD).

Data set [2] has as its system primary human chondrocytes. The data set is described as follows: Ascorbic acid transport assay in isolated primary human chondrocytes. It counts as cell-based. The following applies: for ability to compete with L-14C-Asc for transport: 2 mM unlabeled competitor; for suppression of L-14C-Asc transport by unlabeled competitor: 2 mM competitor, versus no competitor. The method, then: Ascorbic Acid Transport Assay in Isolated Primary Human Chondrocytes. AA transport was measured using a modified version of the uptake assay published by Wilson and Dixon (J. X. Wilson, S. J. Dixon, High-Affinity Sodium-Dependent Uptake of Ascorbic Acid by Rat Osteoblasts, J. Mem. Biol. 111 (1989) 83-91). Primary human chondrocytes were seeded at a density of 4.5×10^5 cells/well on a 6-well plate (or 2.25×10^5 cells/well on a 12-well plate for the kinetic experiments). Prior to the transport assay, cells were plated for 48 hours in DMEM/F12, containing 10% FCS but no AA. Cells were washed in transport buffer containing: 134 mM NaCl, 5.4 mM KCl, 1.8 mM CaCl2, 0.8 mM MgSO4, 10 mM D-glucose, 20 mM HEPES, pH 7.3 with NaOH. […] The standard AA transport assay conditions were 37° C./5% CO2 for 10 minutes. AA uptake was terminated by washing the cells four-times in ice-cold PBS. The cells were lysed with Puregene Cell Lysis Solution (Gentra Systems) and scintillation counting was performed in Uniscint BD (National Diagnostics).
In experiments with sodium free transport buffer, iso-osmotic concentrations of LiCl were substituted for NaCl. […]

Data set [3] relates to primary human chondrocytes. The data set is described as follows: Dehydroascorbate transport assay in isolated primary human chondrocytes. The format is cell-based. The following applies: for ability to compete with L-14C-DHA transport: 2 mM unlabeled competitor; for mode of inhibition of L-14C-DHA transport (Dixon plot): data not shown; for inhibition of DHA transport: 0.1 mM inhibitor, p<0.001; for increase in L-14C-DHA uptake versus 21% oxygen tension: 24 hours. The method, then: Dehydroascorbate Transport Assay in Isolated Primary Human Chondrocytes. DHA transport was measured using a modified version of the uptake assay published by Wilson and Dixon (Wilson J X, Dixon S J. High-Affinity Sodium-Dependent Uptake of Ascorbic Acid by Rat Osteoblasts. J. Mem. Biol. 1989; 111:83-91). Primary human chondrocytes were seeded at a density of 4.5×10^5 cells/well on a 6-well plate. Prior to the transport assay, cells were plated for 48 hours in DMEM/F12, containing 10% FCS but no AA or DHA. Cells were washed in transport buffer containing: 134 mM LiCl, 5.4 mM KCl, 1.8 mM CaCl2, 0.8 mM MgSO4, 20 mM HEPES, pH 7.3 with KOH. DHA uptake was assessed by incubating the chondrocytes in transport buffer containing 189 μM L-^14C-dehydroascorbate (L-^14C-DHA). […] The standard DHA transport assay conditions were 37° C./5% CO2/21% O2 for 10 min. DHA uptake was terminated by washing the cells four-times in ice-cold PBS. […] The total pmol of L-^14C-DHA transported was calculated using the total dpm of L-^14C-DHA transported and the specific activity of the radiolabel.
Matrix Biol. 2002; 21:175-184). Stock solutions of different unlabeled DHA forms were generated in the same manner as the L-^14C-DHA. […]

Data set [4] relates to human articular cartilage explants. Particulars: 50 µM.
Excerpt: Cartilage explants were isolated from human knee articular cartilage surgical waste tissues at the time of knee replacement surgery (n=5). Cartilage was harvested from non-lesioned areas, using a 2 mm diameter micro dissecting trephine (Biomedical Research Instruments, Rockville, Md.). A group of five cartilage plugs was pooled to constitute one sample. Each sample was paired with a corresponding sample from the same specimen and the same sites. The cartilage plugs were weighed and then transferred to a 24-well plate, containing 1 ml wash media (described in the chondrocyte isolation procedure). The cartilage plugs were incubated in 1 ml DMEM/F12 (Gibco, Grand Island, N.Y.) with 10% FCS (Gibco) and no AA for 48 hours at 37° C./5% CO2, prior to the procedures below.
The cartilage explants were washed with PBS and half of the samples were transferred to 1.5 ml centrifuge tubes with a drop of PBS. The tubes were frozen in liquid nitrogen for three minutes and thawed at 37° C. for five minutes. This freeze/thaw procedure was performed for a total of three cycles. The dead explants were transferred back to the 24-well plates.
Explant Ascorbic Acid Transport Assay. […] Samples were processed to isolate the cells from the matrix fraction (see Intracellular versus Extracellular AA) or counted for radioactivity by transferring the whole explants to glass scintillation vials and solubilizing the samples overnight at room temperature in 0.5 ml Solulene 350 (Perkin Elmer Life and Analytical Services, Boston, Mass.). Hionic Fluor scintillation fluid (5 ml, Perkin Elmer Life and Analytical Services) was added, and radioactivity was counted in the live and dead explants, using a scintillation counter.
Explant isolation, explant treatments, and the explant AA transport assay (through the PBS wash step) were performed, followed by the chondrocyte isolation procedure described above. After the cell fraction was isolated from the matrix, the cells were washed, then 15 μl of the cells were counted on a hemacytometer, in order to determine the total number of cells in the cell fraction. […]
Setting [5] is: 100 μM inhibitor, 10 minutes, p<0.001.

Here are results for 13 compounds from patent publication US8247572B2, “Facilitated transport of bisphosphonates by vitamin C” (Duke University, priority 2005, dated 2012).

`O=C(CCC(=O)OCC(O)C1OC(=O)C(O)=C1O)Nc1ccc(NC(P(=O)(O)O)P(=O)(O)O)nc1` [BP-AA, 6-O-{N-[6-[(bisphosphonomethyl)amino]pyridin-3-yl]}succinyl-L-ascorbic acid]: the “transport of BP-AA versus AA alone” value in data set [1] (10 mM BP-AA, one hour) was 143 fold. The “amount gaining entry to chondrocytes in monolayer” value in data set [1] (10 mM, one hour, 37° C.) came to 2281 nmol/mg protein. The inhibition (usually the share of the control response that was lost under treatment) at 10000 µM in data set [1] (Homo sapiens, Chondrocyte, 1 h, 10 mM BP-AA, one hour, no sodium, read-out: inhibition of BP-AA uptake in the absence of sodium) amounted to 50%.

Take `O=C1O[C@H]([C@H](O)CO)C(O)=C1O` [D-Asc, D-isoascorbic acid]: in data set [2] (10 minutes), the “ability to compete with L-14C-Asc for transport” value (“ability … for transport” below) is recorded as “unable to effectively compete”. Further, the “ability to compete with L-14C-DHA transport” value in data set [3] (10 min) is “able to effectively compete”. In addition, in data set [3], the “mode of inhibition of L-14C-DHA transport (Dixon plot)” value was “non-competitive inhibitors”.

Take `O=C1O[C@@H]([C@H](O)CO)C(=O)C1=O` [D-DHA, D-dehydroascorbate]: the “ability to compete with L-14C-DHA transport” value in data set [3] (10 min) is given as “able to effectively compete”.

On to `O=C1OC(C(O)CO)C(=O)C1=O` [DHA, L-dehydroascorbate], for which the “ability … for transport” value in data set [2] (10 minutes) was “unable to effectively compete”. For the same compound, the “ability to compete with L-14C-DHA transport” value in data set [3] (10 min) is “able to effectively compete”. Also, in data set [3] (human, 10 min, 189 µM, pH 7.3), the “increase in DHA transport versus 21% oxygen tension” value is given as 2.7 fold; the “increase of DHA transport versus 21% oxygen tension” value was 3.2 fold; the “increase of DHA transport versus 21% oxygen tension, mean” value came to 3.5 fold; the “passive diffusion of DHA as share of transport under optimized conditions” value is 11%.

For the compound `O=C1O[C@H]([C@@H](O)CO)C(O)=C1O` [L-Asc, L-ascorbic acid], the “vMax for AA transport in chondrocytes” value in data set [2] (0-500 μM L-14C-Asc, Michaelis-Menten) was 148+/−35 pmol L-^14C-Asc/10^6 cells/10 minutes. Further, the Km (usually the substrate concentration at which the rate is half of its maximum) in data set [2] (0-500 μM L-14C-Asc, Michaelis-Menten, read-out: Km for AA transport in chondrocytes) is 179 µM. In addition, in data set [2] (200 μM L-14C-Asc, 10 minutes), the “concentration of unlabeled L-Asc at which the transporter is fully saturated” value is given as “approximately 1000 μM”. Further, in data set [2] (10 minutes, p<0.001), the “suppression of L-14C-Asc transport by unlabeled competitor” value is reported as “approximately 60%”. Moreover, in data set [3] (10 min), the “ability to compete with L-14C-DHA transport” value was “able to effectively compete”. Also, the “mode of inhibition of L-14C-DHA transport (Dixon plot)” value in data set [3] is “non-competitive inhibitors”. Further, in data set [4], the “calculated intracellular concentration of total AA, deep zone cells” value was 45 mM; the “calculated intracellular concentration of total AA, middle zone cells” value is 51 mM; the “calculated intracellular concentration of total AA, superficial zone cells” value is 67 mM.

Turning to `O=C1O[C@H]([C@H](O)CO)C([O-])=C1O.[Na+]` [Na D-Asc, Na D-isoascorbate], the “ability … for transport” value in data set [2] (10 minutes) is on record as “unable to effectively compete”. Besides, in data set [3] (10 min), the “ability to compete with L-14C-DHA transport” value was “able to effectively compete”.

In the case of `O=C1O[C@H]([C@@H](O)CO)C([O-])=C1O.[Na+]` [Na L-Asc, Na L-ascorbate], the “suppression of L-14C-Asc transport by unlabeled competitor” value in data set [2] (10 minutes, p<0.001) came to 75%. For the same compound, in data set [3] (10 min), the “ability to compete with L-14C-DHA transport” value was “able to effectively compete”.

In the case of `C=C1[C@@H](C)[C@H]2[C@H](Cc3ccccc3)NC(=O)[C@]23OC(=O)/C=C/[C@H](O)CCC[C@@H](C)C/C=C/[C@H]3[C@@H]1O` [cytochalasin B], the “inhibition of L-14C-Asc transport” value in data set [2] (setting [5]) came to 40%. In addition, the “inhibition of DHA transport” value in data set [3] (10 min) came to 95%.

For `C[C@H]1C/C=C/[C@H]2[C@@H]3O[C@]3(C)[C@@H](C)[C@H]3[C@H](Cc4ccccc4)NC(=O)[C@]32OC(=O)O/C=C/[C@@](C)(O)C1=O` [cytochalasin E], the “inhibition of L-14C-Asc transport” value in data set [2] (setting [5]) is 35%. In addition, the “inhibition of DHA transport” value in data set [3] (10 min) came to 40%.

Consider `O=C1C(CC[S+]([O-])c2ccccc2)C(=O)N(c2ccccc2)N1c1ccccc1` (stereo not shown) [sulfinpyrazone], for which the inhibition at 100 µM in data set [1] (Homo sapiens, Chondrocyte, 0.75 h, 100 μM sulfinpyrazone, 45 minutes in advance of 10 mM BP-AA) is around 75%; in data set [2] (Homo sapiens, Chondrocyte, 10 min, 100 μM inhibitor, 10 minutes, p<0.001, read-out: inhibition of L-14C-Asc transport), around 65%.

As for L-^14C-dehydroascorbate [L-^14C-DHA], the “increase in L-14C-DHA uptake versus 21% oxygen tension” value in data set [3] (2.5% oxygen, absence of glucose) is listed as 1.6 fold; in data set [3] (5% oxygen), “no increase”. Besides, in data set [3] (O2 tension 5%, 24 hrs), the “14C-DHA Uptake (change versus 21% oxygen tension)” value is listed as “No change”.

For Na D-dehydroascorbate [Na D-DHA], the “ability to compete with L-14C-DHA transport” value in data set [3] (10 min) is “unable to compete”.

Regarding Na L-dehydroascorbate [Na L-DHA], the “ability to compete with L-14C-DHA transport” value in data set [3] (10 min) is listed as “able to effectively compete”.
